ChEMBL document CHEMBL2396621, “Design, synthesis and biological evaluation of 2-mercapto-3-phenethylquinazoline bearing anilide fragments as potential antitumor agents: molecular docking study” (2013)

Assays:
Type in all cases: functional
Malme-3M = assay: Cytotoxicity against human MALME-3M cells assessed as growth inhibition at 10 uM after 48 hrs by coulter counter analysis; settings: read-out: GI
T47D = assay: Cytotoxicity against human T47D cells assessed as growth inhibition at 10 uM after 48 hrs by coulter counter analysis; settings: read-out: GI
786-0 = assay: Cytotoxicity against human 786-0 cells assessed as growth inhibition at 10 uM after 48 hrs by coulter counter analysis; settings: 786-0, 48 h, read-out: GI
NCI-H460 = assay: Cytotoxicity against human NCI-H460 cells assessed as growth inhibition at 10 uM after 48 hrs by coulter counter analysis; settings: NCI-H460, 48 h, read-out: GI
IGROV-1 = assay: Cytotoxicity against human IGROV1 cells assessed as growth inhibition at 10 uM after 48 hrs by coulter counter analysis; settings: IGROV-1, 48 h, read-out: GI
M14 = assay: Cytotoxicity against human M14 cells assessed as growth inhibition at 10 uM after 48 hrs by coulter counter analysis; settings: M14, 48 h, read-out: GI
OVCAR-5 = assay: Cytotoxicity against human OVCAR5 cells assessed as growth inhibition at 10 uM after 48 hrs by coulter counter analysis; settings: OVCAR-5, 48 h, read-out: GI
MDA-MB-435 = assay: Cytotoxicity against human MDA-MB-435 cells assessed as growth inhibition at 10 uM after 48 hrs by coulter counter analysis; settings: MDA-MB-435, 48 h, read-out: GI
MDA-MB-468 = assay: Cytotoxicity against human MDA-MB-468 cells assessed as growth inhibition at 10 uM after 48 hrs by coulter counter analysis; settings: MDA-MB-468, 48 h, read-out: GI
SK-OV-3 = assay: Cytotoxicity against human SKOV3 cells assessed as growth inhibition at 10 uM after 48 hrs by coulter counter analysis; settings: SK-OV-3, 48 h, read-out: GI
NCI-H226 = assay: Cytotoxicity against human NCI-H226 cells assessed as growth inhibition at 10 uM after 48 hrs by coulter counter analysis; settings: NCI-H226, 48 h, read-out: GI
BT-549 = assay: Cytotoxicity against human BT549 cells assessed as growth inhibition at 10 uM after 48 hrs by coulter counter analysis; settings: BT-549, 48 h, read-out: GI
OVCAR-4 = assay: Cytotoxicity against human OVCAR4 cells assessed as growth inhibition at 10 uM after 48 hrs by coulter counter analysis; settings: OVCAR-4, 48 h, read-out: GI
A498 = assay: Cytotoxicity against human A498 cells assessed as growth inhibition at 10 uM after 48 hrs by coulter counter analysis; settings: A498, 48 h, read-out: GI
SK-MEL-28 = assay: Cytotoxicity against human SK-MEL-28 cells assessed as growth inhibition at 10 uM after 48 hrs by coulter counter analysis; settings: SK-MEL-28, 48 h, read-out: GI
DU-145 = assay: Cytotoxicity against human DU145 cells assessed as growth inhibition at 10 uM after 48 hrs by coulter counter analysis; settings: DU-145, 48 h, read-out: GI
NCI-H322M = assay: Cytotoxicity against human NCI-H322M cells assessed as growth inhibition at 10 uM after 48 hrs by coulter counter analysis; settings: read-out: GI
UO-31 = assay: Cytotoxicity against human UO31 cells assessed as growth inhibition at 10 uM after 48 hrs by coulter counter analysis; settings: UO-31, 48 h, read-out: GI
SN12C = assay: Cytotoxicity against human SN12C cells assessed as growth inhibition at 10 uM after 48 hrs by coulter counter analysis; settings: read-out: GI
HCT-116 = assay: Cytotoxicity against human HCT116 cells assessed as growth inhibition at 10 uM after 48 hrs by coulter counter analysis; settings: HCT-116, 48 h, read-out: GI
SF-539 = assay: Cytotoxicity against human SF539 cells assessed as growth inhibition at 10 uM after 48 hrs by coulter counter analysis; settings: SF-539, 48 h, read-out: GI
NCI-H23 = assay: Cytotoxicity against human NCI-H23 cells assessed as growth inhibition at 10 uM after 48 hrs by coulter counter analysis; settings: NCI-H23, 48 h, read-out: GI
RXF 393 = assay: Cytotoxicity against human RXF393 cells assessed as growth inhibition at 10 uM after 48 hrs by coulter counter analysis; settings: RXF 393, 48 h, read-out: GI
KM12 = assay: Cytotoxicity against human KM12 cells assessed as growth inhibition at 10 uM after 48 hrs by coulter counter analysis; settings: KM12, 48 h, read-out: GI
LOX IMVI = assay: Cytotoxicity against human LOXIMVI cells assessed as growth inhibition at 10 uM after 48 hrs by coulter counter analysis; settings: read-out: GI
UACC-62 = assay: Cytotoxicity against human UACC62 cells assessed as growth inhibition at 10 uM after 48 hrs by coulter counter analysis; settings: UACC-62, 48 h, read-out: GI
UACC-257 = assay: Cytotoxicity against human UACC257 cells assessed as growth inhibition at 10 uM after 48 hrs by coulter counter analysis; settings: UACC-257, 48 h, read-out: GI
SK-MEL-5 = assay: Cytotoxicity against human SK-MEL-5 cells assessed as growth inhibition at 10 uM after 48 hrs by coulter counter analysis; settings: SK-MEL-5, 48 h, read-out: GI
SNB-75 = assay: Cytotoxicity against human SNB75 cells assessed as growth inhibition at 10 uM after 48 hrs by coulter counter analysis; settings: SNB-75, 48 h, read-out: GI
A549 = assay: Cytotoxicity against human A549 cells assessed as growth inhibition at 10 uM after 48 hrs by coulter counter analysis; settings: A549, 48 h, read-out: GI
SNB-19 = assay: Cytotoxicity against human SNB19 cells assessed as growth inhibition at 10 uM after 48 hrs by coulter counter analysis; settings: SNB-19, 48 h, read-out: GI
[1] = Cytotoxicity against human EKVX cells assessed as growth inhibition at 10 uM after 48 hrs by coulter counter analysis; settings: read-out: GI
COLO 205 = assay: Cytotoxicity against human COLO205 cells assessed as growth inhibition at 10 uM after 48 hrs by coulter counter analysis; settings: COLO 205, 48 h, read-out: GI
PC-3 = assay: Cytotoxicity against human PC3 cells assessed as growth inhibition at 10 uM after 48 hrs by coulter counter analysis; settings: PC-3, 48 h, read-out: GI
OVCAR-8 = assay: Cytotoxicity against human OVCAR8 cells assessed as growth inhibition at 10 uM after 48 hrs by coulter counter analysis; settings: OVCAR-8, 48 h, read-out: GI
HOP-62 = assay: Cytotoxicity against human HOP62 cells assessed as growth inhibition at 10 uM after 48 hrs by coulter counter analysis; settings: HOP-62, 48 h, read-out: GI
Hs-578T = assay: Cytotoxicity against human Hs578T cells assessed as growth inhibition at 10 uM after 48 hrs by coulter counter analysis; settings: read-out: GI

Structure (SMILES) | inhibition of growth at 10 µM (Malme-3M) | inhibition of growth at 10 µM (T47D) | inhibition of growth at 10 µM (786-0) | inhibition of growth at 10 µM (NCI-H460) | inhibition of growth at 10 µM (IGROV-1) | inhibition of growth at 10 µM (M14) | inhibition of growth at 10 µM (OVCAR-5) | inhibition of growth at 10 µM (MDA-MB-435) | inhibition of growth at 10 µM (MDA-MB-468) | inhibition of growth at 10 µM (SK-OV-3) | inhibition of growth at 10 µM (NCI-H226) | inhibition of growth at 10 µM (BT-549) | inhibition of growth at 10 µM (OVCAR-4) | inhibition of growth at 10 µM (A498) | inhibition of growth at 10 µM (SK-MEL-28) | inhibition of growth at 10 µM (DU-145) | inhibition of growth at 10 µM (NCI-H322M) | inhibition of growth at 10 µM (UO-31) | inhibition of growth at 10 µM (SN12C) | inhibition of growth at 10 µM (HCT-116) | also measured
COc1cc(NC(=O)CCSc2nc3ccccc3c(=O)n2CCc2ccccc2)cc(OC)c1OC | 77% | 47% | 29% | 17% | 21% | 40% | < 10% | 38% | 27% | 44% | 10% | 13% | 51% | 37% | 42% | < 10% | 28% | 22% | 16% | 40% | inhibition of growth at 10 µM (SF-539): 70%; inhibition of growth at 10 µM (NCI-H23): 28%; inhibition of growth at 10 µM (RXF 393): 12%; inhibition of growth at 10 µM (KM12): 39%; inhibition of growth at 10 µM (LOX IMVI): 54%; inhibition of growth at 10 µM (UACC-62): 30%; inhibition of growth at 10 µM (UACC-257): 72%; inhibition of growth at 10 µM (SK-MEL-5): 31%; inhibition of growth at 10 µM (SNB-75): 38%; inhibition of growth at 10 µM (A549): 29%; inhibition of growth at 10 µM (SNB-19): 12%; inhibition of growth at 10 µM [1]: 34%; inhibition of growth at 10 µM (COLO 205): 20%; inhibition of growth at 10 µM (PC-3): 25%; inhibition of growth at 10 µM (OVCAR-8): 28%; inhibition of growth at 10 µM (HOP-62): 45%; inhibition of growth at 10 µM (Hs-578T): 67%
COc1cc(OC(=O)CSc2nc3ccccc3c(=O)n2CCc2ccccc2)cc(OC)c1OC | < 10% | 26% | < 10% | 26% | 11% | < 10% | < 10% | < 10% | < 10% | < 10% | 16% | 10% | < 10% | < 10% | < 10% | < 10% | 11% | 37% | 10% | 20% | inhibition of growth at 10 µM (SF-539): < 10%; inhibition of growth at 10 µM (NCI-H23): < 10%; inhibition of growth at 10 µM (RXF 393): < 10%; inhibition of growth at 10 µM (KM12): < 10%; inhibition of growth at 10 µM (LOX IMVI): < 10%; inhibition of growth at 10 µM (UACC-62): 23%; inhibition of growth at 10 µM (UACC-257): < 10%; inhibition of growth at 10 µM (SK-MEL-5): < 10%; inhibition of growth at 10 µM (SNB-75): 12%; inhibition of growth at 10 µM (A549): 10%; inhibition of growth at 10 µM (SNB-19): < 10%; inhibition of growth at 10 µM [1]: 36%; inhibition of growth at 10 µM (COLO 205): < 10%; inhibition of growth at 10 µM (PC-3): < 10%; inhibition of growth at 10 µM (OVCAR-8): < 10%; inhibition of growth at 10 µM (HOP-62): < 10%; inhibition of growth at 10 µM (Hs-578T): < 10%
Cc1ccc(NC(=O)CSc2nc3ccccc3c(=O)n2CCc2ccccc2)cc1 | 17% | 44% | < 10% | 22% | 20% | < 10% | < 10% | 17% | 29% | 20% | < 10% | < 10% | < 10% | < 10% | 22% | < 10% | 15% | < 10% | < 10% | 13% | inhibition of growth at 10 µM (SF-539): 19%; inhibition of growth at 10 µM (NCI-H23): < 10%; inhibition of growth at 10 µM (RXF 393): 10%; inhibition of growth at 10 µM (KM12): 11%; inhibition of growth at 10 µM (LOX IMVI): 14%; inhibition of growth at 10 µM (UACC-62): 20%; inhibition of growth at 10 µM (UACC-257): 17%; inhibition of growth at 10 µM (SK-MEL-5): 22%; inhibition of growth at 10 µM (SNB-75): 12%; inhibition of growth at 10 µM (A549): 21%; inhibition of growth at 10 µM (SNB-19): 22%; inhibition of growth at 10 µM [1]: 29%; inhibition of growth at 10 µM (COLO 205): 15%; inhibition of growth at 10 µM (PC-3): 14%; inhibition of growth at 10 µM (OVCAR-8): 27%; inhibition of growth at 10 µM (HOP-62): 42%; inhibition of growth at 10 µM (Hs-578T): 41%
